How the values were obtained:
Rattus norvegicus [1] = assay: AUC (0 to 6 hrs) Sprague-Dawley rat plasma treated with [14C]brivanib alaninate at 100 mg/kg, po administered as single oral dose by HPLC analysis; format: ADME, organism-based; settings: in vivo
[2] = target: Fibroblast growth factor receptor 1 (Homo sapiens, UniProt P11362); assay: Inhibition of human recombinant FGFR-1
[3] = Drug excretion in Sprague-Dawley rat urine treated with [14C]brivanib alaninate at 100 mg/kg, po administered as single dose via gavage by HPLC analysis; format: ADME, organism-based; settings: in vivo
[4] = Drug excretion in cynomolgus monkey feces treated with [14C]brivanib alaninate at 10 mg/kg, po administered as single dose via gavage by HPLC analysis; format: ADME, organism-based, Macaca fascicularis; settings: in vivo
[5] = target: Vascular endothelial growth factor receptor 2 (Homo sapiens, UniProt P35968); assay: Inhibition of human recombinant VEGFR-2
Vascular endothelial growth factor receptor 2, sequence (P35968 whole entry): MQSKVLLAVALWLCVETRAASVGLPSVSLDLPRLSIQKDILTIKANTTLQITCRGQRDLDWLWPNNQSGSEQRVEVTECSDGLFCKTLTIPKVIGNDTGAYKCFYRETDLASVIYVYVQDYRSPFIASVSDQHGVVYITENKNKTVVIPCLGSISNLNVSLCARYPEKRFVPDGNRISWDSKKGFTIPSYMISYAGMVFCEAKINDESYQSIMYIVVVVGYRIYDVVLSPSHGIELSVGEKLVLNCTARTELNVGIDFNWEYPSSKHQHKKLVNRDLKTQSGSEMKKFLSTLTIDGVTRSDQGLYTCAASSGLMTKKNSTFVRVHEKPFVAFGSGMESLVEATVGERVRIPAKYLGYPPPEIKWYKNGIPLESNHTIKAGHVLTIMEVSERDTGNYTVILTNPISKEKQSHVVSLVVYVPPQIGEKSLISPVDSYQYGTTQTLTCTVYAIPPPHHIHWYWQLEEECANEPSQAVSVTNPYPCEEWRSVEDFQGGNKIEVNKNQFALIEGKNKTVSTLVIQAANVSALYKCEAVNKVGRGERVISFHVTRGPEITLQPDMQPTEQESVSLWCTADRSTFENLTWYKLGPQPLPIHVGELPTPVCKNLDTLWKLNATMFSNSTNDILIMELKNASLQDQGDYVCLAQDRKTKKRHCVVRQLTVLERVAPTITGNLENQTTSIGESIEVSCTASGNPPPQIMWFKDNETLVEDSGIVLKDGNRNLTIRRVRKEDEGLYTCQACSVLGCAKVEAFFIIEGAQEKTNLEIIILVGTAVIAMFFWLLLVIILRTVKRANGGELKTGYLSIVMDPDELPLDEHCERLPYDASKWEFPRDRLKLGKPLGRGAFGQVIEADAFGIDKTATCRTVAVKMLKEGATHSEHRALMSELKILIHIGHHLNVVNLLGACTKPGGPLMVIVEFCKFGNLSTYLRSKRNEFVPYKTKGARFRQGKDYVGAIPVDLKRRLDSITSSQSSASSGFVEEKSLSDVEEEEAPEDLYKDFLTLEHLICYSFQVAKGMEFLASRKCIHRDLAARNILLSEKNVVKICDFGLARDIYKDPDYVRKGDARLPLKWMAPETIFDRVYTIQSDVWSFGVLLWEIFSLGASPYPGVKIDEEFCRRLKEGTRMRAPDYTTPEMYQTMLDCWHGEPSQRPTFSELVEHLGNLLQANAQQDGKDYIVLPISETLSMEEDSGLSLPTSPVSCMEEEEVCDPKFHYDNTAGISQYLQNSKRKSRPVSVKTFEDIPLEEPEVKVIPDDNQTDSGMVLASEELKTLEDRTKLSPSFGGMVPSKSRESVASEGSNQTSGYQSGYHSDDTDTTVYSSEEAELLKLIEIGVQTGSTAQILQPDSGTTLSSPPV

Plasma [6] = assay: Drug level in cynomolgus monkey plasma assessed as compound formation treated with [14C]brivanib alaninate at 10 mg/kg, po administered as single dose via gavage measured after 2 hrs by HPLC analysis; format: ADME, organism-based, Macaca fascicularis; settings: in vivo
Plasma [7] = assay: Drug level in Sprague-Dawley rat plasma assessed as compound formation treated with [14C]brivanib alaninate at 100 mg/kg, po administered as single dose via gavage measured after 1 hr by HPLC analysis; format: ADME, organism-based; settings: in vivo
Plasma [8] = assay: Drug level in Sprague-Dawley rat plasma assessed as compound formation treated with [14C]brivanib alaninate at 100 mg/kg, po administered as single dose via gavage measured after 2 hrs by HPLC analysis; format: ADME, organism-based; settings: in vivo
[9] = Drug excretion in human feces treated with [14C]brivanib alaninate at 800 mg, po administered as single dose […] by HPLC analysis; format: ADME, organism-based; settings: in vivo
Plasma [10] = assay: Drug level in human plasma assessed as compound formation treated with [14C]brivanib alaninate at 800 mg, po administered as single dose via gavage measured after 2 hrs by HPLC analysis; format: ADME, organism-based; settings: in vivo
Homo sapiens [11] = assay: AUC (0 to 12 hrs) human plasma treated with [14C]brivanib alaninate at 800 mg, po administered as single oral dose by HPLC analysis; format: ADME, organism-based; settings: in vivo
Plasma [12] = assay: Drug level in human plasma assessed as compound formation treated with [14C]brivanib alaninate at 800 mg, po administered as single dose via gavage measured after 12 hrs by HPLC analysis; format: ADME, organism-based; settings: in vivo
[13] = Drug excretion in cynomolgus monkey urine treated with [14C]brivanib alaninate at 10 mg/kg, po administered as single dose via gavage by HPLC analysis; format: ADME, organism-based, Macaca fascicularis; settings: in vivo
Cynomolgus monkey [14] = assay: Drug uptake in cynomolgus monkey plasma treated with [14C]brivanib alaninate assessed as AUC (0 to 12 hrs) of total radio activity at 10 mg/kg, po administered as single oral dose by HPLC analysis; format: ADME, organism-based, Macaca fascicularis; settings: in vivo
[15] = Drug excretion in human urine treated with [14C]brivanib alaninate at 800 mg, po administered as single dose […] by HPLC analysis; format: ADME, organism-based; settings: in vivo
Plasma [16] = assay: Drug level in human plasma assessed as compound formation treated with [14C]brivanib alaninate at 800 mg, po administered as single dose via gavage measured after 1 hr by HPLC analysis; format: ADME, organism-based; settings: in vivo
Plasma [17] = assay: Drug level in cynomolgus monkey plasma assessed as compound formation treated with [14C]brivanib alaninate at 10 mg/kg, po administered as single dose via gavage measured after 1 hr by HPLC analysis; format: ADME, organism-based, Macaca fascicularis; settings: in vivo
Plasma [18] = assay: Drug level in cynomolgus monkey plasma assessed as compound formation treated with [14C]brivanib alaninate at 10 mg/kg, po administered as single dose via gavage measured after 6 hrs by HPLC analysis; format: ADME, organism-based, Macaca fascicularis; settings: in vivo
Rattus norvegicus [19] = assay: Drug uptake in Sprague-Dawley rat plasma treated with [14C]brivanib alaninate assessed as AUC (0 to 6 hrs) of total radio activity at 100 mg/kg, po administered as single oral dose by HPLC analysis; format: ADME, organism-based; settings: in vivo
Homo sapiens [20] = assay: Drug uptake in human plasma treated with [14C]brivanib alaninate assessed as AUC (0 to 12 hrs) of total radio activity at 800 mg, po administered as single oral dose by HPLC analysis; format: ADME, organism-based; settings: in vivo
[21] = Drug excretion in bile duct-cannulated rat bile treated with [14C]brivanib alaninate at 100 mg/kg, po administered as single dose via gavage by HPLC analysis; format: ADME, organism-based; settings: in vivo
Plasma [22] = assay: Drug level in cynomolgus monkey plasma assessed as compound formation treated with [14C]brivanib alaninate at 10 mg/kg, po administered as single dose via gavage measured after 4 hrs by HPLC analysis; format: ADME, organism-based, Macaca fascicularis; settings: in vivo
Plasma [23] = assay: Drug level in human plasma assessed as compound formation treated with [14C]brivanib alaninate at 800 mg, po administered as single dose via gavage measured after 8 hrs by HPLC analysis; format: ADME, organism-based; settings: in vivo
Plasma [24] = assay: Drug level in cynomolgus monkey plasma assessed as compound formation treated with [14C]brivanib alaninate at 10 mg/kg, po administered as single dose via gavage measured after 12 hrs by HPLC analysis; format: ADME, organism-based, Macaca fascicularis; settings: in vivo
[25] = Drug excretion in Sprague-Dawley rat feces treated with [14C]brivanib alaninate at 100 mg/kg, po administered as single dose via gavage by HPLC analysis; format: ADME, organism-based; settings: in vivo
Cynomolgus monkey [26] = assay: AUC (0 to 12 hrs) cynomolgus monkey plasma treated with [14C]brivanib alaninate at 10 mg/kg, po administered as single oral dose by HPLC analysis; format: ADME, organism-based, Macaca fascicularis; settings: in vivo
Plasma [27] = assay: Drug level in Sprague-Dawley rat plasma assessed as compound formation treated with [14C]brivanib alaninate at 100 mg/kg, po administered as single dose via gavage measured after 6 hrs by HPLC analysis; format: ADME, organism-based; settings: in vivo
[28] = Drug excretion in bile duct-cannulated cynomolgus monkey bile treated with [14C]brivanib alaninate at 10 mg/kg, po administered as single dose via gavage by HPLC analysis; format: ADME, organism-based, Macaca fascicularis; settings: in vivo
Plasma [29] = assay: Drug level in human plasma assessed as compound formation treated with [14C]brivanib alaninate at 800 mg, po administered as single dose via gavage measured after 4 hrs by HPLC analysis; format: ADME, organism-based; settings: in vivo
[30] = Drug level in cynomolgus monkey urine treated with [14C]brivanib alaninate at 10 mg/kg, po administered as single dose via gavage by mass spectrometry; format: ADME, organism-based, Macaca fascicularis; settings: in vivo
Cynomolgus monkey [31] = assay: AUC (0 to t) in cynomolgus monkey plasma treated with [14C]brivanib alaninate at 10 mg/kg, po administered as single dose via gavage by LC-MS/MS analysis; format: ADME, organism-based, Macaca fascicularis; settings: in vivo
Rattus norvegicus [32] = assay: Tmax in Sprague-Dawley rat plasma treated with [14C]brivanib alaninate at 100 mg/kg, po administered as single dose via gavage by LC-MS/MS analysis; format: ADME, organism-based; settings: in vivo
Rattus norvegicus [33] = assay: Cmax in Sprague-Dawley rat plasma treated with [14C]brivanib alaninate at 100 mg/kg, po administered as single dose via gavage by LC-MS/MS analysis; format: ADME, organism-based; settings: in vivo
Homo sapiens [34] = assay: Cmax in human plasma treated with [14C]brivanib alaninate at 800 mg, po administered as single dose […] by LC-MS/MS analysis; format: ADME, organism-based; settings: in vivo
Rattus norvegicus [35] = assay: AUC (0 to t) in Sprague-Dawley rat plasma treated with [14C]brivanib alaninate at 100 mg/kg, po administered as single dose via gavage by LC-MS/MS analysis; format: ADME, organism-based; settings: in vivo
Liver microsome = assay: Drug metabolism in human liver microsomes assessed as (R)-1-(4-(4-fluoro-2-(hydroxymethyl)-1H-indol-5-yloxy)-5-methylpyrrolo[1,2-f][1,2,4]triazin-6-yloxy)propan-2-ol formation by LC-MS/MS analysis in presence of NADPH; format: ADME
Homo sapiens [36] = assay: AUC (0 to t) in human plasma treated with [14C]brivanib alaninate at 800 mg, po administered as single dose […] by LC-MS/MS analysis; format: ADME, organism-based; settings: in vivo
Cynomolgus monkey [37] = assay: Tmax in cynomolgus monkey plasma treated with [14C]brivanib alaninate at 10 mg/kg, po administered as single dose via gavage by LC-MS/MS analysis; format: ADME, organism-based, Macaca fascicularis; settings: in vivo
Cynomolgus monkey [38] = assay: Cmax in cynomolgus monkey plasma treated with [14C]brivanib alaninate at 10 mg/kg, po administered as single dose via gavage by LC-MS/MS analysis; format: ADME, organism-based, Macaca fascicularis; settings: in vivo
Homo sapiens [39] = assay: Tmax in human plasma treated with [14C]brivanib alaninate at 800 mg, po administered as single dose […] by LC-MS/MS analysis; format: ADME, organism-based; settings: in vivo

Fibroblast growth factor receptor 1, sequence (P11362 whole entry): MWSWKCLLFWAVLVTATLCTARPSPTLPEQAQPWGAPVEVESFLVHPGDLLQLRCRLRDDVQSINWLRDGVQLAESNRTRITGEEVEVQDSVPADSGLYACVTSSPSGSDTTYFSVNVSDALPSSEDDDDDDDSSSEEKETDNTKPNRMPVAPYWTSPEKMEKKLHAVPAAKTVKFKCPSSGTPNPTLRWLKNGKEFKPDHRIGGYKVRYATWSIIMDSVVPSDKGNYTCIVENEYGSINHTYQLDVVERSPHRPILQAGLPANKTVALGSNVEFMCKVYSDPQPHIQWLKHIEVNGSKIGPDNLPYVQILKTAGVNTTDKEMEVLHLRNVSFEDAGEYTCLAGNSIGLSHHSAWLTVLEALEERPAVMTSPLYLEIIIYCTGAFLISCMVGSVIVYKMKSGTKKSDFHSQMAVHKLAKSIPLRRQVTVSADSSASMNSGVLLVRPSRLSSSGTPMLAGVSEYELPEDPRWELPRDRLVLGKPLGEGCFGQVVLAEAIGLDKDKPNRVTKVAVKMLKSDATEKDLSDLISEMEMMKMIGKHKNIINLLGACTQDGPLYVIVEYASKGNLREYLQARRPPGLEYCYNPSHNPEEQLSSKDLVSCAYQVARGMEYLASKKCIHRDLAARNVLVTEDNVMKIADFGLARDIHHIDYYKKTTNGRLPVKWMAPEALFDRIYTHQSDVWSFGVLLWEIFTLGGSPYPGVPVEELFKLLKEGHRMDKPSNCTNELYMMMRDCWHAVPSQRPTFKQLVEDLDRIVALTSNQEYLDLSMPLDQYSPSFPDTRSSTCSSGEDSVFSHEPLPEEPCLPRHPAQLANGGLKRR

Row | SMILES | AUC (Rattus norvegicus [1]) | Compound recovery [3] | Compound recovery [4] | Compound recovery (Plasma [6]) | Compound recovery (Plasma [7]) | Compound recovery (Plasma [8]) | Compound recovery [9] | Compound recovery (Plasma [10]) | AUC (Homo sapiens [11]) | Compound recovery (Plasma [12]) | Compound recovery [13] | AUC metabolite/AUC radiolabel (Cynomolgus monkey [14]) | Compound recovery [15] | Compound recovery (Plasma [16]) | Compound recovery (Plasma [17]) | Compound recovery (Plasma [18]) | AUC metabolite/AUC radiolabel (Rattus norvegicus [19]) | Compound recovery [21] | Compound recovery [25] | Compound recovery [28] | further results
1 | Cc1c(OC[C@@H](C)O)cn2ncnc(Oc3ccc4[nH]c(C(=O)O)cc4c3F)c12 | 12825.3 ugequiv/l.hr | 0.5% | 22% | 6.4% | 5.1% | 5.3% | 7.4% | 7.6% | 4119.3 ugequiv/l.hr | 4.6% | 1.1% | 7.2% | 0.4% | 6.8% | 3.1% | 6.9% | 9.2% | 0.9% | 12.8% | 10.5% | IC50 [2]: > 30 µM; IC50 [5]: > 30 µM; AUC metabolite/AUC radiolabel (Homo sapiens [20]): 6.3%; Compound recovery (Plasma [22]): 8.6%; Compound recovery (Plasma [23]): 4.9%; Compound recovery (Plasma [24]): 3.5%; AUC (Cynomolgus monkey [26]): 5006 ugequiv/l.hr; Compound recovery (Plasma [27]): 5.3%; Compound recovery (Plasma [29]): 11.4%
2 | Cc1c(OC[C@@H](C)OS(=O)(=O)O)cn2ncnc(Oc3ccc4[nH]c(C(=O)O)cc4c3F)c12 |  | metabolite_not_detected | 4% |  |  |  | 26.6% |  |  |  |  |  | 2.4% |  |  |  |  | 2.5% | 5.7% | 4.9% | Compound recovery [30]: metabolite_detected
3 | Cc1cc2c(F)c(Oc3ncnn4cc(OC[C@@H](C)O)c(C)c34)ccc2[nH]1 [BRIVANIB] | 23709.8 ugequiv/l.hr | metabolite_not_detected | 6.5% | 62.7% | 22% | 15.8% | 7.5% | 56.9% | 30257.7 ugequiv/l.hr | 38% | metabolite_not_detected | 61.4% | metabolite_not_detected | 72.4% | 70.7% | 60.8% | 17% | metabolite_not_detected | 1.8% | metabolite_not_detected | AUCt (Cynomolgus monkey [31]): 49000 ng·h/mL; Tmax (Rattus norvegicus [32]): 1 h; Cmax (Rattus norvegicus [33]): 6400 ng/mL; Cmax (Homo sapiens [34]): 6100 ng/mL; AUCt (Rattus norvegicus [35]): 35500 ng·h/mL; Compound recovery (Liver microsome): metabolite_detected; AUCt (Homo sapiens [36]): 45900 ng·h/mL; Tmax (Cynomolgus monkey [37]): 2 h; Cmax (Cynomolgus monkey [38]): 6200 ng/mL; AUC metabolite/AUC radiolabel (Homo sapiens [20]): 46.1%; Tmax (Homo sapiens [39]): 1 h; Compound recovery (Plasma [22]): 44.2%; Compound recovery (Plasma [23]): 46.7%; Compound recovery (Plasma [24]): 71.9%; AUC (Cynomolgus monkey [26]): 42587.2 ugequiv/l.hr; Compound recovery (Plasma [27]): 14.3%; Compound recovery (Plasma [29]): 57.1%

Source: ChEMBL document CHEMBL3526109 (Drug Metab Dispos, 2011)
